Among the data in US20240269304A1, “BCL-XL INHIBITOR ANTIBODY-DRUG CONJUGATES AND METHODS OF USE THEREOF” (Novartis AG, priority 2020, published 2024) are IC50 values, retold here.

Structures are written as SMILES. Where two headings read alike, the source gives them in different places.

This assay relates to H1650 cells. The experiment in a line: CellTiterGlo (CTG) cell viability, 3D, 120 h, H1650 (Example 8). Format: cell-based, human. Particulars: Homo sapiens, NCI-H1650, H1650 3D. How it is done:
H1650 cells were cultivated in RPMI supplemented with 10% heat inactivated fetal bovine serum, penicillin (100 IU/ml), streptomycin (100 μg/ml) and L-glutamine (2 mM). Cell lines were cultured at 37° C. in a humidified atmosphere containing 5% 002. Cells were seeded in 96 microwell round bottom plates (96 microwell Low attachment plates , Costar reference 7007) and exposed to the payloads or ADCs for 120 h (serially diluted; 9 concentrations each, duplicates). Effects of payloads or ADCs on cell viability were assessed after 5 days of incubation at 37° C./5% CO2 by quantification of cellular ATP levels using CellTiterGlo at 75 μL reagent/well. All the conditions were tested in duplicates. Luminescence was quantified on a multipurpose plate reader. IC50S were calculated using standard four-parametric curve fitting. […] Each experiment was performed at least twice, with results being reproducible.

[1] abbreviates: experiment n1, read-out: H1650 3D CTG IC50 n1.
The mark [2] stands for this setting: experiment n2, read-out: H1650 3D CTG IC50 n2.
[3] abbreviates: mean of n1 and n2, read-out: H1650 3D CTG IC50 Mean of n1 and n2.

Consider `Cc1c(Nc2nc3ccccc3s2)nnc2c1CCCN2c1ccc(-c2cnn(CC34CC5(C)CC(C)(C3)CC(OCCN(C)CCCC(=O)O)(C5)C4)c2C)c(C(=O)O)n1` [P57, 6-[3-(1,3-benzothiazol-2-ylamino)-4-methyl-6,7-dihydro-5H-pyrido[2,3-c]pyridazin-8-yl]-3-[1-[[3-[2-[3-carboxypropyl(methyl)amino]ethoxy]-5,7-dimethyl-1-adamantyl]methyl]-5-methyl-pyrazol-4-yl]pyridine-2-carboxylic acid], for which the 50% inhibitory concentration (IC50) reads like this: under setting [1], 6.75 nM; under setting [2], 14.3 nM; under setting [3], 10.5 nM.
The like results for `Cc1c(Nc2nc3ccccc3s2)nnc2c1CCCN2c1ccc(-c2cnn(CC34CC5(C)CC(C)(C3)CC(OCCN3CCCC3)(C5)C4)c2C)c(C(=O)N2CCCC2)n1` [P74, [6-[3-(1,3-benzothiazol-2-ylamino)-4-methyl-6,7-dihydro-5H-pyrido[2,3-c]pyridazin-8-yl]-3-[1-[[3,5-dimethyl-7-(2-pyrrolidin-1-ylethoxy)-1-adamantyl]methyl]-5-methyl-pyrazol-4-yl]-2-pyridyl]-pyrrolidin-1-yl-methanone] were, in that order, 2 nM, 1.86 nM and 1.93 nM.
The like results for `Cc1c(Nc2nc3ccccc3s2)nnc2c1CCCN2c1ccc(-c2cnn(CC34CC5(C)CC(C)(CC(CCCN(C)CCO)(C5)C3)C4)c2C)c(C(=O)O)n1` [P49, 6-[3-(1,3-benzothiazol-2-ylamino)-4-methyl-6,7-dihydro-5H-pyrido[2,3-c]pyridazin-8-yl]-3-[1-[[3-[3-[2-hydroxyethyl(methyl)amino]propyl]-5,7-dimethyl-1-adamantyl]methyl]-5-methyl-pyrazol-4-yl]pyridine-2-carboxylic acid] were, in that order, 1.3 nM, 1.12 nM and 1.21 nM.
The like results for `COCCCN(C)CCCC12CC3(C)CC(C)(C1)CC(Cn1ncc(-c4ccc(N5CCCc6c5nnc(Nc5nc7ccccc7s5)c6C)nc4C(=O)O)c1C)(C3)C2` [P50, 6-[3-(1,3-benzothiazol-2-ylamino)-4-methyl-6,7-dihydro-5H-pyrido[2,3-c]pyridazin-8-yl]-3-[1-[[3-[3-[3-methoxypropyl(methyl)amino]propyl]-5,7-dimethyl-1-adamantyl]methyl]-5-methyl-pyrazol-4-yl]pyridine-2-carboxylic acid] were, in that order, 0.55 nM, 0.21 nM and 0.38 nM.
`Cc1c(Nc2nc3ccccc3s2)nnc2c1CCCN2c1ccc(-c2cnn(CC34CC5(C)CC(C)(CC(CCCNCCC(=O)O)(C5)C3)C4)c2C)c(C(=O)O)n1` [P54, 6-[3-(1,3-benzothiazol-2-ylamino)-4-methyl-6,7-dihydro-5H-pyrido[2,3-c]pyridazin-8-yl]-3-[1-[[3-[3-(2-carboxyethylamino)propyl]-5,7-dimethyl-1-adamantyl]methyl]-5-methyl-pyrazol-4-yl]pyridine-2-carboxylic acid]: the concentration for half-maximal inhibition (IC50) is, setting by setting: under setting [1], 10.7 nM; under setting [2], 11.8 nM; under setting [3], 11.2 nM.
The like results for `CNCCOC1Cc2c(nnc(Nc3nc4ccccc4s3)c2C)N(c2nc(C(=O)O)c(CCCOc3ccc(C#CCN(C)C)cc3F)s2)C1` (stereo not drawn) [P16, 2-{3-[(1,3-Benzothiazol-2-yl)amino]-4-methyl-6-[2-(methylamino)ethoxy]-5H,6H,7H,8H-pyrido[2,3-c]pyridazin-8-yl}-5-(3-{4-[3-(dimethylamino)prop-1-yn-1-yl]-2-fluorophenoxy}propyl)-1,3-thiazole-4-carboxylic acid] were, in that order, 6.1 nM, 6.2 nM and 6.15 nM.
